This note sets out measurements from ChEMBL document CHEMBL5625161, “Pharmacological activity and mechanism of pyrazines” (Eur J Med Chem, 2023).

Data set [1] relates to MCF7. Put plainly: Antiproliferative activity against human MCF7 cells assessed as inhibition of cell growth at 0.1 uM incubated for 24 hrs by SRB assay relative to control. Type of data set: functional. Further details: scale not given: the % may be the effect or the level left.
The test system of data set [2] is MDA-MB-231. Put plainly: Antiproliferative activity against human MDA-MB-231 cells assessed as inhibition of cell growth at 0.1 uM incubated for 24 hrs by SRB assay relative to control. Type of data set: functional. Further details: scale not given: the % may be the effect or the level left.
Data set [3] deals with HCT-116. Nature of the data set: Antiproliferative activity against human HCT-116 cells assessed as inhibition of cell growth at 0.1 uM incubated for 24 hrs by SRB assay relative to control. It counts as functional. Further details: scale not given: the % may be the effect or the level left.
Data set [4] concerns HCT-116. Put plainly: Antiproliferative activity against human HCT-116 cells assessed as reduction in cell viability incubated for 72 hrs by MTT assay. It counts as functional, cell-based. Particulars: HCT-116, 72 h.
The next data set concerns SW-620. Put plainly: Antiproliferative activity against human SW620 cells assessed as reduction in cell viability incubated for 72 hrs by MTT assay. Type of data set: functional, cell-based. Particulars: SW-620, 72 h.
The subject of another data set is Human coronavirus 229E. Nature of the data set: Antiviral activity against Human coronavirus 229E cells assessed as inhibition of virus-induced cytopathic effect by crystal violet staining based analysis. Type of data set: functional, organism-based.
The test system of a further data set is CCRF-CEM. Put plainly: Growth inhibition of human CCRF-CEM cells. Type of data set: functional, cell-based. The note with it: pooled result: one value given for 60 cell lines, strains, targets or settings.
Data set [5] concerns the target Aldo-keto reductase family 1 member B1 (Homo sapiens, UniProt P15121). Put plainly: Inhibition of human recombinant ALDR1.
Another data set relates to A-375. Put plainly: Antiproliferative activity against human A-375 cells assessed as reduction in cell growth by MTT assay. Type of data set: functional, cell-based.
The next data set has as its system BGC-823. Put plainly: Antiproliferative activity against human BGC-823 cells assessed as reduction in cell growth by MTT assay. It counts as functional, cell-based.
For data set [6], the system named is MCF7. Nature of the data set: Antiproliferative activity against human MCF7 cells assessed as reduction in cell growth by MTT assay. Type of data set: functional, cell-based.
The test system of a further data set is MIA PaCa-2. Nature of the data set: Antiproliferative activity against human MIA PaCa-2 cells assessed as reduction in cell growth by MTT assay. It counts as functional, cell-based.
Data set [7] concerns HCT-116. Put plainly: Antiproliferative activity against human HCT-116 cells assessed as reduction in cell growth by MTT assay. It counts as functional, cell-based.
The test system of data set [8] is MDA-MB-231. Put plainly: Cytotoxicity against human MDA-MB-231 cells assessed as cell growth inhibition at 10 uM measured after 48 hrs by SRB assay relative to control. Type of data set: functional. Further details: scale not given: the % may be the effect or the level left.
A further data set concerns LOX IMVI. Nature of the data set: Cytotoxicity against human LOX IMVI cells assessed as cell growth inhibition at 10 uM measured after 48 hrs by SRB assay relative to control. Type of data set: functional. Further details: scale not given: the % may be the effect or the level left.
In the next data set the test system is SNB-75. Put plainly: Cytotoxicity against human SNB-75 cells assessed as cell growth inhibition at 10 uM measured after 48 hrs by SRB assay relative to control. It counts as functional. Further details: scale not given: the % may be the effect or the level left.
The test system of a further data set is A549. Nature of the data set: Cytotoxicity against human A549 cells assessed as cell growth inhibition at 10 uM measured after 48 hrs by SRB assay relative to control. It counts as functional. Further details: scale not given: the % may be the effect or the level left.
Data set [9] relates to PC-3. Put plainly: Cytotoxicity against human PC-3 cells assessed as cell growth inhibition at 10 uM measured after 48 hrs by SRB assay relative to control. Type of data set: functional. Further details: scale not given: the % may be the effect or the level left.
The subject of a further data set is KG-1. Nature of the data set: Antiproliferative activity against human KG-1 cells assessed as reduction in cell viability incubated for 72 hrs by MTT assay. Particulars: KG-1, 72 h. Type of data set: functional, cell-based.
The target in data set [10] is Mitogen-activated protein kinase 3 (Homo sapiens, UniProt P27361). Put plainly: Inhibition of ERK1 (unknown origin).
Chain of Mitogen-activated protein kinase 3 (P27361 whole entry): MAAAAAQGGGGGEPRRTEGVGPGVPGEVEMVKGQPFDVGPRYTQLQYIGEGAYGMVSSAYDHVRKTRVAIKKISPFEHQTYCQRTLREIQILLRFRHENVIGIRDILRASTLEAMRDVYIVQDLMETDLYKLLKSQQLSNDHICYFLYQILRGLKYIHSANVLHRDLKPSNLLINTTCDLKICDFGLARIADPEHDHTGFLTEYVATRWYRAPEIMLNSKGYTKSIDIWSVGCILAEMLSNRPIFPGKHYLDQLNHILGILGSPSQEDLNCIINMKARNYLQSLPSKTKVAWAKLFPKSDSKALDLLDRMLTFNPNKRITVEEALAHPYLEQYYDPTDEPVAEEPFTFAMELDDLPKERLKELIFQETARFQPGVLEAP
In data set [11] the target is Mitogen-activated protein kinase 1 (Homo sapiens, UniProt P28482). Put plainly: Inhibition of ERK2 (unknown origin).
Chain of Mitogen-activated protein kinase 1 (P28482 whole entry): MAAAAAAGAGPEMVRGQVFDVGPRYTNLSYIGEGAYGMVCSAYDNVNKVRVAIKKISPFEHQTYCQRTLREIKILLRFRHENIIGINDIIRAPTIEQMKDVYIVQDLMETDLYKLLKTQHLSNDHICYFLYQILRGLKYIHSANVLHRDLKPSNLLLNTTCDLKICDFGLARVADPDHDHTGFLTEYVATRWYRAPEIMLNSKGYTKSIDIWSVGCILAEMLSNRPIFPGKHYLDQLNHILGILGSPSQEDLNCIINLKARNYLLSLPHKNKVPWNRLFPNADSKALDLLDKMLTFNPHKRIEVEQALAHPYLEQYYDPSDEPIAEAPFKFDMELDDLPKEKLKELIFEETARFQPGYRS
In data set [12] the target is Mitogen-activated protein kinase 6 (Homo sapiens, UniProt Q16659). Put plainly: Inhibition of ERK3 (unknown origin).
Chain of Mitogen-activated protein kinase 6 (Q16659 whole entry): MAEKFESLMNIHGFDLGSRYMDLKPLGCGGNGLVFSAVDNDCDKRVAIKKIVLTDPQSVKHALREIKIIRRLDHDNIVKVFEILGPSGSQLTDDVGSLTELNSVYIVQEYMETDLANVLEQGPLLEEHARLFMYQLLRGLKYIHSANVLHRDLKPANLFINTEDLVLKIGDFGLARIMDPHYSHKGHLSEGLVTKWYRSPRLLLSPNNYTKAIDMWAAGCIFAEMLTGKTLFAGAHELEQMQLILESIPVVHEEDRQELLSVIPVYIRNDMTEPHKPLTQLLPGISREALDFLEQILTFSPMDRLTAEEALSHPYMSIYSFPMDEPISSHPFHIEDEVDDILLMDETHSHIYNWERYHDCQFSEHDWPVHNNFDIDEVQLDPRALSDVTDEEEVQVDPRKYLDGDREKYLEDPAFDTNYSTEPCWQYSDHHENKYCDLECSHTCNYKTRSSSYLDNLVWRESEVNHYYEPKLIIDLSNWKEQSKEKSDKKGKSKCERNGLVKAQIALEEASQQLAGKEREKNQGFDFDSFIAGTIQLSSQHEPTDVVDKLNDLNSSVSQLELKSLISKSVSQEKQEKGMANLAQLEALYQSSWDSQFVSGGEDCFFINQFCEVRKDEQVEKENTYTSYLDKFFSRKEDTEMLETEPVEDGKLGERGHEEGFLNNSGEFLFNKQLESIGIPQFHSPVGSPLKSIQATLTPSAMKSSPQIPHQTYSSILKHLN
The test system of a further data set is HeLa. Put plainly: Antitumor activity against human HeLa cells assessed as cell growth inhibition incubated for 72 hrs by MTT assay. It counts as functional, cell-based.
The test system of another data set is MGC-803. Nature of the data set: Antiproliferative activity against human MGC-803 cells assessed as inhibition of cell growth incubated for 72 hrs by MTT assay. It counts as functional, cell-based. The note with it: MGC-803, 72 h.
Another data set relates to T-24. Put plainly: Antiproliferative activity against human T-24 cells assessed as inhibition of cell growth incubated for 72 hrs by MTT assay. Type of data set: functional, cell-based. The note with it: T-24, 72 h.
In another data set the test system is L02. Nature of the data set: Antiproliferative activity against human HL7702 cells assessed as cell growth inhibition measured after 72 hrs by MTT assay. Type of data set: functional, cell-based. The note with it: L02, 72 h.
The nature of data set [13]: Antiproliferative activity against human WI-38 cells assessed as cell growth inhibition measured after 72 hrs by MTT assay. Type of data set: toxicity, cell-based.
Data set [14] has as its system PC-3. Put plainly: Antiproliferative activity against human PC-3 cells assessed as reduction in cell viability incubated for 48 hrs by CCK-8 assay. It counts as functional, cell-based. The note with it: PC-3, 48 h.
Data set [15] in a line: Antiproliferative activity against human THLE-2 cells assessed as reduction in cell viability incubated for 48 hrs by CCK-8 assay. Type of data set: toxicity, cell-based.
The nature of data set [16]: Selectivity index, ratio of IC50 for antiproliferative activity against human THLE-2 cells to IC50 for antiproliferative activity against human PC-3 cells.
In the next data set the test system is BJ. Nature of the data set: Cytotoxicity against human BJ cells assessed as cell growth inhibition measured after 72 hrs by Celltiter-Glo assay. It counts as functional, cell-based.
The subject of the next data set is LN-229. Nature of the data set: Cytotoxicity against human LN-229 cells assessed as reduction in cell growth incubated for 72 hrs by Celltiter-Glo assay. Particulars: LN-229, 72 h. It counts as functional, cell-based.
Data set [17] in a line: Antiproliferative activity against mouse Ba/F3 EML4-ALK cells assessed as inhibition of cell growth. Type of data set: functional, cell-based.

pIC50: −log10 of the molar value. Bounds are passed on as bounds.

Regarding `Nc1nc(N2CCCC2CC2CCCC2CO)cnc1-c1cccc(Cl)c1Cl` (stereo not drawn), the results for the Activity with MCF7 [1], in the data set with MDA-MB-231 [2] and in the data set with HCT-116 [3] were 30%, 32% and 27%, respectively.

Take `O=C(Nc1ccc2ccccc2c1)c1c(Cc2ccccc2)n2nc3ccccc3c2c(=O)n1C1CC1`: the pIC50 is 5.89 in the data set on HCT-116 [4] and 5.74 in the data set with SW-620.

Take `c1cc(-c2nc3cnccn3c2NC2CCCCC2)ccn1`: the pIC50 with Human coronavirus 229E is 4.24.

Turning to `c1cn2cc(-c3ccc4ncn(C5CCCCC5)c4c3)nc(-c3ccc4ncn(C5CCCCC5)c4c3)c2n1`, in the data set with CCRF-CEM, the pIC50 was 6.09.

Turning to `O=C(c1ccc(O)cc1)c1ncc(-c2ccc(O)cc2)nc1C(=O)c1ccc(O)cc1`, the pIC50 in data set [5] was 5.19.

On to `COc1ccc(OCCN2CCn3nnc(-c4cc(C(C)C)c(O)cc4O)c3C2)cc1`, for which the negative logarithm of the IC50 (pIC50) in the data set on A-375 was 5.64; with BGC-823, 5.38; with MCF7 [6] it was 5.25; in the data set on MIA PaCa-2 it was 5.17; with HCT-116 [7], 4.99.

As to `COc1ccc(-c2cn3c(-c4ccc(OC)cc4)cnc3c(Oc3ccc4c(C)cc(=O)oc4c3)n2)cc1`, the Activity with MDA-MB-231 [8] turned out to be 93.71%; in the data set with LOX IMVI, 91.98%; in the data set with SNB-75, 85.69%; with A549 it was 83.52%; in the data set with PC-3 [9], 83.52%.

With `O=S(=O)(c1cn(CCF)cn1)n1ccc2ncc(-c3cn[nH]c3)nc21`, the pIC50 in the data set on KG-1 is 7.54.

With `CN1CCN([C@H]2C[C@@H](c3nc(-c4ccc5ccc(-c6ccccc6)nc5c4)c4c(N)nccn43)C2)CC1`, the pIC50 in data set [10], in data set [11] and in data set [12] was 6.68 throughout.

With `Clc1ccc(-c2nc3oc4ccccc4c3nc2-c2ccc(Cl)cc2)cc1`, the pIC50 with HeLa was 5.00; with MGC-803 it was 4.69; in the data set on T-24 it was 4.90; with L02 it was 4.60. For the same compound, the IC50 at 72 h in [13] is more than 40 µM.

For `C[C@H](O)[C@@]1(C)CCC2[C@]3(C)CC=C4C(C)(C)c5nc(C(=O)NCCc6ccccc6)cnc5C[C@]4(C)[C@H]3CC[C@@]21C` (stereo partly drawn), in the data set on PC-3 [14], the pIC50 is 6.03. Moreover, the IC50 at 48 h in data set [15] worked out at 26.7 µM. Further, the “Ratio IC50” value in data set [16] came to 28.71.

Take `N#Cc1cncc(Cl)n1`: the pIC50 was 4.02 in the data set on BJ and 4.74 in the data set with LN-229.

As for `CCc1nc(C(N)=O)c(Nc2ccc3c(c2)CCN(C2CC=CC2)CC3)nc1NC1CCOCC1`, the negative-log IC50 (pIC50) in [17] is 8.92.
